What was measured:
[1] = tested on: SARS-CoV-2 spike RBD; test: Spike RBD-mCRP binding ELISA; details: for Kd: ELISA, spike RBD-immobilized microtiter wells, detection with mCRP-specific mAb 3H12, n = 3, mean ± S.E.M.
Protocol: The interactions of the spike-RBD with mCRP or CRP were also examined by enzyme-linked immunosorbent assay (ELISA) using mCRP/CRP-specific mAbs. Briefly, 100 μL of spike-RBD (1μg/mL) in Tris-buffered saline (TBS; 10 mM Tris, 140 mM NaCl, pH 7.4) was added per well to coat in 96-well microplates overnight at 4°C. The wells were then washed three times with TBS containing 0.02% Tween-20 for 5 min and blocked with 1% bovine serum albumin (BSA) in TBS for 1 h at 37°C. Next, mCRP was added and the plates were incubated for 1 h at 37°C. The color was developed by adding tetramethyl benzidine (TMB) to the wells and the color development was stopped with 1 M H2SO4.

[2] = tested on: SARS-CoV-2 spike RBD; test: Surface plasmon resonance (SPR) binding assay, spike RBD on CM5 chip
Protocol: (§1) Surface plasmon resonance (SPR) binding assays were performed using Biacore 8K instrument (Cytiva Life Sciences, Marlborough, MA, USA) in HEPES buffer containing 50 mM HEPES (pH 7.4), 150 mM NaCl, and 0.05% Tween-20 at 25°C. Spike-RBD was diluted to a concentration of 20 μg/mL with 10 mM sodium acetate (pH 5.0) and immobilized on a CM5 sensor chip (Cytiva Life Sciences, Marlborough, MA, USA). The mCRP samples were passed over the sensor chip at a flow rate of 30 μL/min with a concentration gradient from 3.125 nM to 100 nM. The association time was 180 s. A dissociation process was performed for 200 s at a flow rate of 30 μL/min. The dissociation constant (Kd) values were calculated by fitting result curves (subtracted from the control flow value) to a 1:1 Langmuir binding model with Biacore 8K evaluation software.

[3] = tested on: spike RBD binding to cell surface ACE2 (A549 ACE2+/+ cells); test: Inhibition assay of spike-ACE2 interaction in cells (flow cytometry); format: cell-based, human; details: spike RBD 140 nM with ACE2+/+ cells, compound 4°C 30 min, n = 3
[4] = tested on: binding of mCRP to the spike RBD; test: Peptide competition assay (ELISA) of mCRP binding to spike RBD; set-up: species or system SARS-CoV-2; details: spike RBD-coated wells (2 μg/mL), mCRP at half-saturation concentration with synthetic peptide, mAb 3H12, n = 3
[5] = tested on: binding of the spike RBD to mCRP; set-up: species or system SARS-CoV-2
[6] = tested on: immortalized bone marrow-derived macrophages (iBMDM); test: Cytokine release from macrophages stimulated with CBS; format: cell-based; details: iBMDM stimulated with different concentrations of CBS, LPS positive control, n = 3
Protocol: To compare the inhibitory ability of the CBS peptide, different concentrations of the CBS peptide were added to the cell medium and incubated at 4°C for 30 min. After washing, the mixture was incubated for another 30 min with anti-Flag antibody, followed by incubation with a secondary antibody conjugated to Alexa Fluor 488. The inhibitory activity of the CBS peptide and positive control (lomefloxacin) was compared using flow cytometry with Alexa Fluor 488-conjugated spike RBD and phycoerythrin (PE)-conjugated ACE2. […] At the same time, we stimulated macrophages with the CBS peptide and detected the release of pro-inflammatory cytokines TNF-α and IL-6 to verify whether the CBS peptide itself is immunogenic.

[7] = tested on: SARS-CoV-2 pseudovirus; details: 50 μM, preliminary results, data not shown
[8] = cited from earlier work
[9] = tested on: binding of the spike RBD to ACE2; test: SPR competition of spike RBD binding to ACE2; set-up: species or system human; details: fixed spike RBD concentration, different concentrations of mCRP
Protocol: as §1
Having confirmed that mCRP can bind to the spike RBD, we further questioned whether mCRP can compete for the binding of the spike RBD to ACE2. […] First, in the spike RBD binding assay with ACE2, the spike RBD concentration was fixed and different concentrations of mCRP were added to test whether mCRP could inhibit the binding of the spike RBD to ACE2.

Question: Which “binding to the spike RBD (ELISA)” value ([1]; spike RBD-immobilized wells, detection with pCRP-specific mAb 8D8, n = 3) does the source give for pCRP here?
Answer: did not bind

Question: Which Kd [1] does the source give for r-mCRP here?
Answer: 24.4 ± 6.48 nM

Question: Which “binding of spike RBD to ACE2 (SPR)” value ([2]; check of biological activity of the spike RBD protein) does the source give for ACE2 here?
Answer: high affinity

Question: Which results are given for CBS (VCLHFYTELSSTR)?
Answer: inhibition of the binding of the spike RBD to the cell surface ACE2 [3]: inhibit the binding of the spike RBD to the cell surface ACE2 in a concentration-dependent manner; inhibition of the binding of mCRP to the spike RBD (peptide competition assay) [4]: competitively inhibited; inhibition of the binding of the spike RBD to mCRP (SPR) [5]: almost completely inhibited; release of pro-inflammatory cytokines TNF-α and IL-6 [6]: did not induce the release of cytokines; inhibition of the invasion of SARS-CoV-2 pseudovirus into Caco-2 cells [7]: partially inhibit

Question: Which “inhibition of the binding of mCRP to the spike RBD (peptide competition assay)” value (“inhibition of the binding of mCRP” for short) [4] does the source give for “amino acids 41−47 (TELSSTR; UniProt P02741 59-65, looked up, fragment)” here?
Answer: lost the ability to inhibit

Question: For u-mCRP, which Kd [1] is on record?
Answer: 44.9 ± 6.27 nM

Question: For `CCn1cc(C(=O)O)c(=O)c2cc(F)c(N3CCNC(C)C3)c(F)c21` (stereo not shown) [lomefloxacin, Lomefloxacin, reference compound], which “inhibition of the binding of the spike RBD to the cell surface ACE2” value [3] is on record?
Answer: almost completely inhibited

Question: For amino acids 39−47 (FYTELSSTR), which “inhibition of the binding of mCRP” value [4] is on record?
Answer: lost the ability to inhibit

Question: For amino acids 35−42 (VCLHFYTE), which “inhibition of the binding of mCRP” value [4] is on record?
Answer: still inhibited

Question: For mCRP, which “binding to the spike RBD (SPR)” value ([2]; analyte 3.125-100 nM in fluid phase, spike RBD on CM5 chip, HEPES pH 7.4, 25°C) is on record?
Answer: high affinity

Question: And the “half-life of blood-borne mCRP” value [8]?
Answer: rather short

Question: What about the “inhibition of the binding of the spike RBD to ACE2 (SPR)” value [9] of the same compound?
Answer: significantly inhibited

Source: paper PMC9304929, “The Cholesterol-Binding Sequence in Monomeric C-Reactive Protein Binds to the SARS-CoV-2 Spike Receptor-Binding Domain and Blocks Interaction With Angiotensin-Converting Enzyme 2” (Frontiers in Immunology, 2022)
